# Measured values: patent publication US8710064B2, “2-aryl-4-quinazolinones and their pharmaceutical compositions” (China Medical University, priority 2011, dated 2014)
# How the values were obtained:
# HSC-3 = assay: trypan blue exclusion assay, HSC-3 cells; type: cell-based, human; details: HSC-3 human squamous carcinoma; trypan blue exclusion assay
# Experimental: The HSC-3 (human oral squamous cell carcinoma) were cultured in 1:1 Dulbecco's Modified Eagle's Medium (DMEM) and Ham's Nutrient Mixture F-12, containing 10% FBS (HyClone, Logan, Utah, USA), 100 U/ml penicillin, 100 μg/ml streptomycin (Gibco BRL, Rockville, Md., USA) and 2 mM glutamine (Merck, Darmstadt, Germany).
# Cell viability was also determined by trypan-blue exclusion assay. Cells were seeded in 6-well plates (2×10^4/well) for trypan blue exclusion assay, and incubated for 24 hours at 37° C. Culture medium containing test compound or DMSO (0.006%) was added to each well, and cells were incubated at 37° C. At indicated time points (0, 24, 48, 72 and 96 hr), cells were suspended with 0.05% trypsin-EDTA, and stained with trypan-blue dye (0.4%) (Sigma). The cell viability was evaluated by the percentage of death relative to the total cell, and cell growth curve was determined by number of live cells relative to the total number of cells.
# The anti-proliferation effects of Compounds 17-31 on M21, CH27, H460, Hep3B and HSC-3 cells were evaluated by the trypan blue exclusion assay.
# [1] = tested on: U87 human glioma cell lines; assay: MTS cell viability assay, U87 glioma cells; type: cell-based; details: 48 hours, mean±SEM, n=3
# Experimental: The human glioma cell lines U87, U251, T98G, U373, and rat glioma cell line RT2 provided by Dr. Michael Hsiao (Genomics Research Center, Academia Sinica, Taiwan) were cultured in Dulbecco's Modified Eagle medium (DMEM) (Caisson) supplemented with 10% fetal bovine serum (FBS) (Sigma-Aldrich), 2 mM L-glutamine (Caisson), 100 U/ml penicillin, and 100 μg/ml streptomycin (Caisson). The rat glioma C6 cell line provided by Dr. Shun-Fen Tzeng (National Cheng Kung University, Taiwan) was cultured in DMEM/F12 (Caisson) supplemented with 10% fetal bovine serum, 2 mM L-glutamine, 100 U/ml penicillin, and 100 μg/ml streptomycin. The human normal glia cell line SVGP12, kindly provided by Dr. Michael Hsiao, was cultured in Minimum Essential Medium (MEM) (Invitrogen) supplemented with 10% fetal bovine serum, 2 mM L-glutamine, 100 U/ml penicillin, and […]. Primary glia cells were prepared by surgery. Cerebral cortices without meninges were dissected from postnatal (P0-P2) Sprague-Dawley (SD, NCKU Laboratory Animal Center) rats and dissociated in 0.05% trypsin-EDTA (Biowest) at 37° C. for 10 min. Culture medium was added and pipetted for several times, and supernatant was removed after a centrifugation at 1,000 rpm for 5 minutes. […]
# Cell proliferation was determined by MTS (tetrazolium compound, 3-(4,5-dimethylthiazol-2-yl)-5-(3-carboxymethoxyphenyl)-2-(4-sulfophenyl)-2H-tetrazolium) assay (Promega). […] The absorbance of soluble formazan was measured at 490 nm with microplate reader (Molecular device). The cell viability was determined by the percentage of the absorption relative to untreated control. […]
# To investigate the effect of 2-aryl-4-quinazolinone in accordance with the present invention on cell proliferation, glioma cell lines were treated with MJ-66, MJ-68, or MJ-78. […] The cell viability of each group was analyzed by MTS assay (mean±SEM, n=3).
smiles,measurement,setting,value
"O=c1[nH]c(-c2cccc3ccccc23)nc2ccc(N3CCCC3)cc12 [Compound 23, 6-(Pyrrolidin-1-yl)-2-(naphthalen-1-yl)quinazolin-4-one]",IC50,HSC-3,41 nM
same,IC50,[1],54 ± 10 nM
